Experimental data from patent US8673914B2, “Use of phosphodiesterase inhibitors for treating multidrug resistance” (St. John's University, priority 2011, dated 2014).
Like-named read-outs stand apart in the source and are kept apart here. Marks after values point to notes of the source that are not given here.

What was measured:
[1] = system: KB-3-1; assay: MTT cytotoxicity/reversal assay (Example 1); type: cell-based, human; conditions: read-out: IC50 of cisplatin, alone
Protocol: (§1) The KB-C2 and KB-3-1 were kindly provided by Dr. Akiyama (Kagoshima University, Japan). HEK293-pcDNA3.1 and wild-type HEK/ABCG2 transfected cells were established by selection with G418 after transfecting HEK293 with either (1) empty pcDNA3.1 vector or (2) pcDNA3.1 vector containing full length of ABCG2 coding arginine (R) at amino acid position 482, and were then cultured in a medium with 2 mg/ml of G418 (ABCG2-482-R2 cells). Similarly, the HEK/MRP1 (ABCC1) and HEK/ABCB1 cells were generated by transfecting the HEK293 cells with either the MRP1 expression vector or the ABCB1 expression vector. All of the cell lines were grown in Dulbecco's modified Eagle's medium (DMEM) supplemented with 10% bovine serum, 100 units/ml penicillin, and […] streptomycin in a humidified incubator containing 5% CO2 at 37° C.
(§2) The MTT assay was used to assess cytotoxicity. The cultured cells were harvested with trypsin and resuspended in a final concentration of 4×10^3 cells/well for KB-3-1; 7.5×10^3 cells/well for KB-C2; and 8×10^3 for all of the other cell lines used in this study. Cells were seeded evenly in 96-well multiplates. […] After 68 h of incubation, 20 μl of the MTT solution (4 mg/ml) was added to each well, and the plate was further incubated for 4 h at 37° C., allowing viable cells to convert the yellow-colored MTT into dark-blue formazan crystals. Subsequently, the medium was discarded, and 100 μl of DMSO was added into each well to dissolve the formazan crystals, generating purple color. The absorbance was determined at 570 nm by an OPSYS Microplate Reader from DYNEX Technologies, Inc. (Chantilly, Va.). […] The degree of the reversal of multidrug resistance (MDR) was calculated by dividing the IC50 of an anticancer drug, e.g., an antineoplastic or chemotherapeutic drug (agent, compound), in a cell type in the absence of a reversal agent by the IC50 of the anticancer drug in the same cell type in the presence of the reversal agent. The IC50 values were calculated from survival curves using the Bliss method.

[2] = system: HEK 293-pcDNA-3.1; assay: MTT cytotoxicity assay (Example 4); type: cell-based; conditions: read-out: IC50 of cisplatin; HEK 293-pcDNA-3.1; alone
Protocol: The MRP7 cDNA was generously provided by Dr. Gary Kruh (University of Illinois, Chicago, Ill.) and inserted into the pcDNA3.1 expression vector. […] Individual colonies were selected in medium containing G418 (1 mg/ml) and cultured for further analysis.
MTT colorimetric assay was performed to analyze the drug sensitivity as previously described (Shi et al. (2007) Cancer Res. 67:11012-20). HEK293-pcDNA3.1 and HEK/MRP7 cells were seeded into 96-well plates in triplicate at 6000 cells/well.
After drug incubation of 68 h, 20 μl MTT solution (4 mg/ml) was added into each well. […] The Bliss method was used to calculate the IC50 values according to survival curves.

[3] = system: KB-V1; assay: MTT cytotoxicity/reversal assay (Example 2); type: cell-based, human; conditions: read-out: IC50 of cisplatin, alone
Protocol: (§3) The ABCB1-overexpressing drug resistant cell line KB-V1 (generously provided by Dr. Gottesman, NCI, NIH) was established by a stepwise concentration increase of vinblastine in the culture medium of KB-3-1 cells and subsequently culturing these cells in medium with 1 μg/mL of vinblastine. An ABCC1-overexpressing MDR cell line, KB-CV60, was also derived from KB-3-1 cells and was maintained in medium with 1 μg/mL of cepharanthine and 60 ng/mL of vincristine. Both KB-C2 and KB-CV60 cell lines were kindly provided by Dr. Akiyama (Kagoshima University, Japan). HEK293/pcDNA3.1, ABCG2-482-R5, ABCG2-482-G2, and ABCG2-482-T7 cells were established by selection with 2 mg/mL G418 after transfecting HEK293 with either (1) empty pcDNA3.1 vector or (2) pcDNA3.1 vector containing full length ABCG2 coding either (2a) wild-type arginine (R) or mutant (2b) glycine (G) or (2c) threonine (T) at amino acid position 482, respectively. The wild-type ABCG2-overexpressing drug-resistant cell line MCF-7/Flv1000 was cultured in the medium with 1 μM of flavopiridol. […] Another G482 mutant ABCG2-overexpressing drug resistant cell line, S1-M1-80, was maintained in the medium with 80 μM of mitoxantrone. […] All the cell lines were grown as adherent monolayers in flasks with DMEM (Dulbecco's modified Eagle's medium) culture medium (Hyclone Co.) containing 10% bovine serum at 37° C. in a humidified atmosphere of 5% CO2.
(§4) Cells in 96-well plates were preincubated with or without the reversal agents for 1 h and then different concentrations of chemotherapeutic drugs were added into designated wells. After 68 h of incubation, MTT solution (4 mg/mL) was added to each well, and the plate was further incubated for 4 h, allowing viable cells to change the yellow-colored MTT into dark-blue formazan crystals. Subsequently the medium was discarded, and […] of DMSO was added into each well to dissolve the formazan crystals. The absorbance was determined at 570 nm by an OPSYS MR Microplate Reader from DYNEX Technologies, Inc.

[4] = system: KB-C2; assay: MTT cytotoxicity/reversal assay (Example 2); type: cell-based, human; conditions: read-out: IC50 of cisplatin, alone
Protocol: as §3, §4

[5] = system: KB-3-1; assay: MTT cytotoxicity/reversal assay (Example 2); type: cell-based, human; conditions: read-out: IC50 of cisplatin, alone
Protocol: as §3, §4

[6] = system: MCF-7; assay: MTT cytotoxicity/reversal assay (Example 2); type: cell-based
Protocol: as §3, §4

[7] = system: S1; assay: MTT cytotoxicity/reversal assay (Example 2); type: cell-based
Protocol: as §3, §4

[8] = system: MCF7/ADVP3000; assay: MTT cytotoxicity/reversal assay (Example 2); type: cell-based
Protocol: as §3, §4

[9] = system: HEK293/pcDNA3; assay: MTT cytotoxicity/reversal assay (Example 2); type: cell-based
Protocol: as §3, §4

[10] = system: S1-M1-80; assay: MTT cytotoxicity/reversal assay (Example 2); type: cell-based
Protocol: as §3, §4

[11] = system: MCF-7/Flv1000; assay: MTT cytotoxicity/reversal assay (Example 2); type: cell-based
Protocol: as §3, §4

[12] = system: HEK293/pcDNA3.1; assay: MTT cytotoxicity/reversal assay (Example 1); type: cell-based
Protocol: as §1, §2

[13] = system: S1/FLV5000; assay: cells; type: cell-based
Protocol: as §3, §4

[14] = system: HEK/ABCG2-T7; assay: MTT cytotoxicity/reversal assay (Example 2)
Protocol: as §3, §4

[15] = system: HEK/ABCG2-R5; assay: MTT cytotoxicity/reversal assay (Example 2)
Protocol: as §3, §4

[16] = system: HEK/ABCG2-G2; assay: MTT cytotoxicity/reversal assay (Example 2)
Protocol: as §3, §4

[17] = system: HEK/MRP1 (ABCC1); assay: MTT cytotoxicity/reversal assay (Example 1); type: cell-based; conditions: +10 μM reversal agent
Protocol: The KB-C2 and KB-3-1 were kindly provided by Dr. Akiyama (Kagoshima University, Japan). […] Similarly, the HEK/MRP1 (ABCC1) and HEK/ABCB1 cells were generated by transfecting the HEK293 cells with either the MRP1 expression vector or the ABCB1 expression vector. All of the cell lines were grown in Dulbecco's modified Eagle's medium (DMEM) supplemented with 10% bovine serum, 100 units/ml penicillin, and […] streptomycin in a humidified incubator containing 5% CO2 at 37° C.
as §2

[18] = system: ABCG2-482-R2 (ABCG2); assay: MTT cytotoxicity/reversal assay (Example 1)
Protocol: as §1, §2

[19] = read-out: IC50 of cisplatin, alone
[20] = Homo sapiens, alone, read-out: IC50 of flavopiridol
[21] = Homo sapiens, alone, read-out: IC50 of mitoxantrone

SMILES: N.N.[Cl][Pt][Cl] [Cisplatin, cisplatin]
- IC50 [1]: 1.9 ± 0.0709 µM
- IC50 [2]: 1.57 ± 0.0849 µM
- IC50 [3]: 1.76 ± 0.178 µM
- IC50 [4]: 1.73 ± 0.083 µM
- IC50 [5]: 1.75 ± 0.161 µM
- IC50 [6, 19]: 34.4 ± 1.76 µM
- IC50 [7, 19]: 14.7 ± 2.23 µM
- IC50 [8, 19]: 31.1 ± 3.2 µM
- IC50 [9, 19]: 1.63 ± 0.17 µM
- IC50 [10, 19]: 18 ± 2.59 µM
- IC50 ([11]; read-out: IC50 of cisplatin, MCF-7/Flv1000, alone): 35.1 ± 1.86 µM
- IC50 ([12]; read-out: IC50 of cisplatin, HEK293/pcDNA3.1, alone): 890 ± 33.9 µM
- IC50 ([13]; read-out: IC50 of cisplatin, S1/FLV5000, alone): 53.5 ± 5.8 µM

SMILES: CN1CC[C@H](c2c(O)cc(O)c3c(=O)cc(-c4ccccc4Cl)oc23)[C@H](O)C1 [Flavopiridol, flavopiridol]
- fold-resistance, flavopiridol [14]: (4.6)
- fold-resistance, flavopiridol [15]: (1.7)
- fold-resistance, flavopiridol [16]: (2.4)
- IC50 ([6]; Homo sapiens, MCF7, alone, read-out: IC50 of flavopiridol): 0.3443 ± 0.0021 µM
- fold-resistance, flavopiridol ([6]; alone): (1.0)^c
- fold-resistance, flavopiridol ([7]; alone): (1.0)^c
- IC50 ([7]; alone, read-out: IC50 of flavopiridol): 0.0961 ± 0.0096 µM
- IC50 [8, 20]: 3.9 ± 0.414 µM
- fold-resistance, flavopiridol ([8]; alone): (11.3)
- IC50 [9, 20]: 0.164 ± 0.0171 µM
- fold-resistance, flavopiridol ([9]; alone): (1.0)^c
- IC50 [10, 20]: 0.699 ± 0.047 µM
- fold-resistance, flavopiridol ([10]; alone): (7.3)
- fold-resistance, flavopiridol ([11]; MCF-7/Flv1000, alone): (19.9)
- IC50 ([11]; MCF-7 FLV1000, read-out: IC50 of flavopiridol): 6.86 ± 0.479 µM
- fold-resistance, flavopiridol ([13]; S1/FLV5000, alone): (64.9)
- IC50 ([13]; S1/FLV5000, alone, read-out: IC50 of flavopiridol): 6.2 ± 0.463 µM

SMILES: O=C1c2c(O)ccc(O)c2C(=O)c2c(NCCNCCO)ccc(NCCNCCO)c21 [Mitoxantrone, mitoxantrone]
- fold-resistance, mitoxantrone ([14]; HEK/ABCG2-T7, alone): (23.7)
- fold-resistance, mitoxantrone ([15]; HEK/ABCG2-R5, alone): (12.8)
- fold-resistance, mitoxantrone ([16]; HEK/ABCG2-G2, alone): (31.0)
- IC50 ([6]; Homo sapiens, MCF7, alone, read-out: IC50 of mitoxantrone): 7.66 ± 0.193 µM
- fold-resistance, mitoxantrone ([6]; alone): (1.0)^c
- fold-resistance, mitoxantrone ([7]; alone): (1.0)^c
- IC50 ([7]; alone, read-out: IC50 of mitoxantrone): 0.38 ± 0.0416 µM
- IC50 [8, 21]: 279 ± 6.03 µM
- fold-resistance, mitoxantrone ([8]; alone): (36.4)
- IC50 [9, 21]: 0.0356 ± 0.003 µM
- fold-resistance, mitoxantrone ([9]; alone): (1.0)^c
- IC50 [10, 21]: 224 ± 8.6 µM
- fold-resistance, mitoxantrone ([10]; alone): (559.3)
- fold-resistance, mitoxantrone ([11]; MCF-7/Flv1000, alone): (66.7)
- IC50 ([11]; MCF-7/Flv1000, alone, read-out: IC50 of mitoxantrone): 511 ± 16.7 µM
- fold-resistance, mitoxantrone [13]: (3.0)
- IC50 ([13]; S1/FLV5000, alone, read-out: IC50 of mitoxantrone): 1.12 ± 0.144 µM

SMILES: O=C(Nc1cccc2c(=O)cc(-c3nn[nH]n3)oc12)c1ccc(OCCCCc2ccccc2)cc1 [ONO-1078]
- fold reversal, vincristine [17]: (5.9)
- fold reversal, vincristine ([12]; HEK293/pcDNA3.1 (Table 6), +10 μM reversal agent): (1.33)

SMILES: CCc1c2c(nc3ccc(O)cc13)-c1cc3c(c(=O)n1C2)COC(=O)[C@]3(O)CC [SN-38, 7-ethyl-10-hydroxy-20(S)-camptothecin]
- fold-resistance, SN-38 ([14]; HEK/ABCG2-T7, alone): (20.2)
- IC50 ([14]; read-out: IC50 of SN-38, HEK/ABCG2-T7, alone): 0.117 ± 0.0704 µM
- fold-resistance, SN-38 ([15]; HEK/ABCG2-R5, alone): (22.1)
- IC50 ([15]; read-out: IC50 of SN-38, HEK/ABCG2-R5, alone): 0.128 ± 0.0882 µM
- fold-resistance, SN-38 ([16]; HEK/ABCG2-G2, alone): (2.3)
- IC50 ([16]; read-out: IC50 of SN-38, HEK/ABCG2-G2, alone): 0.204 ± 0.136 µM
- fold reversal, SN-38 ([18]; alone): (1.00)
- IC50 ([18]; read-out: IC50 of SN-38, alone): 3.65 ± 0.547 µM
- fold-resistance, SN-38 ([6]; alone): (1.0)^c
- IC50 ([6]; alone, read-out: IC50 of SN-38): 1.22 ± 0.263 µM
- fold-resistance, SN-38 ([7]; alone): (1.0)^c
- IC50 ([7]; alone, read-out: IC50 of SN-38): 0.245 ± 0.017 µM
- fold-resistance, SN-38 ([8]; alone): (11.3)
- IC50 ([8]; alone, read-out: IC50 of SN-38): 14.3 ± 1.62 µM
- fold-resistance, SN-38 ([9]; alone): (1.0)^c
- IC50 ([9]; alone, read-out: IC50 of SN-38): 0.0058 ± 0.0002 µM
- fold-resistance, SN-38 ([10]; alone): (14.4)
- IC50 ([10]; alone, read-out: IC50 of SN-38): 3.55 ± 1.4 µM
- fold-resistance, SN-38 ([11]; MCF-7/Flv1000, alone): (18.7)
- IC50 ([11]; MCF-7/Flv1000, alone, read-out: IC50 of SN-38): 22.8 ± 2 µM
- fold reversal, SN-38 ([12]; HEK293/pcDNA3.1, alone): (1.00)
- IC50 ([12]; HEK293/pcDNA3.1, alone, read-out: IC50 of SN-38): 0.116 ± 0.0151 µM
- fold-resistance, SN-38 ([13]; S1/FLV5000, alone): (1.4)
- IC50 ([13]; S1/FLV5000, alone, read-out: IC50 of SN-38): 0.344 ± 0.0874 µM
